Measurements reported in patent US8895302B2, “Directed differentiation of primate pluripotent stem cells into functional basal forebrain cholinergic neurons (BFCNs) and medium spiny gabaergic projection neurons” (Wisconsin Alumni Research Foundation, priority 2010, dated 2014).

Key:
striatum = test: Unilateral QA-induced striatal lesion; format: in vivo, SCID mice
Method: Twenty-four male SCID mice (10 weeks of age) were anesthetized with 1-2% isoflurane mixed in oxygen, and received stereotaxic injection of 2 μl 0.1M quinolinic acid (QA, P63204; Sigma, in saline with 0.2 mg/ml ascorbic acid) in the right striatum at the coordinates (anterior-posterior (AP)=−0.7 mm, lateral (L)=+1.7 mm, vertical (V)=−3.2 mm) to create the unilateral lesion (Hansson et al., 1999).
To assess the function of in vitro produced human medium spiny GABA projection neurons, we created a unilateral QA-induced striatal lesion model in immune deficient SCID mice (Sanberg et al., 1989; Reynolds et al., 2006). Four weeks post injection of QA, majority of neurons, as labeled by NeuN, including FoxP2 and DARPP32 expressing GABA projection neurons in the striatum were lost, resulting in a smaller striatum in the lesion side as compared to the non-lesion side. Accompanying the loss of neurons, there was a significant increased level of GFAP expression in astrocytes.

[1] = system: hESC-derived cholinergic neurons; test: Whole-cell patch clamp, spontaneous synaptic currents of hESC-derived BFCNs; format: cell-based, human; settings: CNQX 20 μM in bath, BFCNs differentiated 8-10 weeks
Method: Whole-cell patch-clamp recordings were made from hESC-derived cholinergic neurons at 8-10 weeks age as previously reported (Johnson et al., 2007). Briefly, the neurons were held at −70 mV to record the spontaneous release and Na+/K+ channel activities. For action potential recording, the cells were held at 0 pA with current-clamp model and the steps of currents from +[…] were injected into cells by the holding electrode. The bath solution consisted of 127 mM NaCl, 1.2 mM KH2PO4, 1.9 mM KCl, 26 mM NaHCO3, 2.2 mM CaCl2, 1.4 mM MgSO4, 10 mM glucose, 290 mM mOsm and 95% O2/5% CO2. Recording pipettes were filled with an intracellular recording solution consisting of 20 mM KCl, 121 mM K^+-gluconate, 10 mM Na^+-HEPES, 10 mM BAPTA, 4 mM Mg2^+-ATP pH 7.2 and 290 mOm. Bicuculline (20 μM; Sigma) or 6-cyano-7-nitroquinoxiline-2,3-dione (CNQX, 20 μM; RBI) was applied to the bath solution to distinguish inhibitory (GABAergic) and excitatory (glutamatergic) response. Biocytin (1%, Sigma) was injected into cells after recording to identify the neuronal identity. An Olympus BX51WI microscope was used to visualize neurons. […] Data were analyzed with pClamp 9.0 (Axon instruments). […]
To determine the functionality of the hESC-derived BFCNs, we first measured the electrophysiological properties of the BFCNs that were differentiated for 8-10 weeks by whole cell patch clamping recording (FIG. 3). […]

[2] = system: hESC-derived primitive neural stem cells; test: RT-qPCR of dorsal/ventral transcription factors in patterned neural stem cells; format: cell-based, human; settings: SHH 200 or 0.65 uM of purmorphamine, day 25
Method: (§1) The procedure for differentiating hESCs to neuroectodermal cells was the same as described (Li et al., 2005; Zhang et al., 2001). hESCs were differentiated to Pax6-expressing primitive neural stem cells for 10-12 days in a neural induction medium consisting of DMEM/F12, N2 supplement and non-essential amino acids (Pankratz et al., 2007; Zhang et al., 2001). The primitive neural stem cells were then treated with SHH (50-1000 ng/ml) or its small molecule agonist purmorphamine (0.1-1.5 uM, Calbiochem, San Diego, Calif., USA) from day 12 to day 26 to specify ventral progenitors. During this period, neural stem cells grew rapidly and formed neural tube-like rosettes, which were gently blown off at day 15-17 and grown in suspension under the same medium. For neuronal differentiation, neural progenitor clusters were dissociated with Accutase at 37° C. for 5 minutes and plated onto ornithine/laminin-coated coverslips at day 26 in Neurobasal medium.
Total RNA was extracted using Trizol reagent (Invitrogen), and cDNA was reverse-transcribed using the SuperScript III First-Strand (Invitrogen). Real-time PCR was performed using the Bio-Rad MyiQ real-time PCR detection system as described (Du et al., 2009).
Basal forebrain cholinergic neurons (BFCNs) are differentiated from progenitors in the MGE and POa/AEP domains that express Nkx2.1 (Wilson and Rubenstein, 2000; Zhao et al., 2003). […]

[3] = system: hESC-derived primitive neural stem cells; test: Patterning of hESC-derived primitive neural stem cells to ventral telencephalic progenitors (immunocytochemistry, FACS, Western blotting); format: cell-based, human
Method: as §1
Immunocytochemical staining on coverslip cultures and free-floating brain sections was performed as previously described (Li et al., 2005; Yang et al., 2008). The images were visualized using a Nikon TE600 fluorescence microscope (Nikon Instruments, Melville, N.Y., USA) or a Nikon C1 laser-scanning confocal microscope.
Protein samples were collected at day 25 after differentiation. Western blot analysis was performed as described (Li et al., 2009). Proteins (25 μg) were separated by 10% acrylamide gel and blotted with antibodies against Nkx2.1 (1:2,000, Mouse IgG, Chemicon & Millipore), Pax6 (1:4,000, Rabbit IgG, Covance), and β-actin (1:4,000, Mouse IgG, Sigma).
To quantify the differentiation efficiency of forebrain progenitors, neural progenitor spheres were dissociated into single cells and quantified by fluorescent activated cell sorting (FACS) (LaVaute et al., 2009). For quantifying differentiated cholinergic neurons, the neural progenitor spheres were digested with Accutase (Innovation Cell Technology) into small clusters and plated on coverslips for immunostaining as previous described (Li et al., 2005; Hu et al., 2009). Optical fields of cultures were randomly selected, and the neuronal cells and total cells (Hoechst stained) were counted using a Metamorph software. All the experiments were triplicated and the results were reproduced in two different cell lines (H1 and H9). For statistical analysis, 2-side t-test was used.
hESCs were first differentiated to Pax6-expressing pNSCs in a chemically defined medium as previously described (Johnson et al., 2007; Li et al., 2005; Zhang et al., 2001). We first determined the time course of SHH action by applying SHH for a week at day 10, 13, and 17 and by quantifying cells that express Nkx2.1, an MGE transcription factor.
Basal forebrain cholinergic neurons (BFCNs) are differentiated from progenitors in the MGE and POa/AEP domains that express Nkx2.1 (Wilson and Rubenstein, 2000; Zhao et al., 2003). […] In contrast, the expression of dorsal telencephalic transcription factors, Pax6 and Emx1, was decreased (FIG. 1B). Immunostaining and Western blotting analyses confirmed that Nkx2.1-expressing cell population increased progressively, with 97±1.3% of the cells being Nkx2.1 positive in the presence of 1000 ng/ml of SHH, whereas the population of Pax6 positive dorsal progenitors decreased, to less than 0.01% under 1000 ng/mlof SHH (FIG. 1C, D, E).

[4] = SHH 200 ng/ml or purmorphamine 0.65 uM, day 30

Structure (SMILES): O=C(O)c1cccnc1C(=O)O [QA, quinolinic acid]
- stride length on the right limbs versus control animals that received aCSF (Treadscan) (striatum; lesioned mice): longer stride length
- behavioural outcome of unilateral striatal lesion (striatum; rotarod, open field, Treadscan): locomotion deficits typical of HD

Structure (SMILES): N#Cc1cc2[nH]c(=O)c(=O)[nH]c2cc1[N+](=O)[O-] [CNQX, 6-cyano-7-nitroquinoxiline-2,3-dione]
- spontaneous synaptic activity [1]: partially blocked

Structure (SMILES): c1ccc2c(Oc3nc(Nc4ccc(N5CCOCC5)cc4)c4ncn(C5CCCCC5)c4n3)cccc2c1 [purmorphamine]
- Gsh2 mRNA versus control group (RT-qPCR) [2]: upregulated expression
- Pax6 mRNA versus control group (RT-qPCR) [2]: downregulation
- GABA interneuron progenitor marker Nkx2.1 (immunostaining) [3, 4]: minimal expression
- cortical marker Pax6 (immunostaining) [3, 4]: decreased expression
- striatal GABA neuron progenitor markers Meis2, Mash1 and Otx2 (immunostaining) [3, 4]: increased expression
- purmorphamine concentration equivalent to SHH at 200 ng/ml for GABAergic progenitors ([3]; pNSCs treated at day 10-12): ~0.65 µM
- purmorphamine concentration equivalent to SHH at 500 ng/ml for cholinergic progenitors ([3]; pNSCs treated at day 10-12): ~1 µM
